{
  "source": "paper PMC8044163",
  "about": "“Vitamin D and lumisterol derivatives can act on liver X receptors (LXRs)” (Scientific Reports, 2021)",
  "system": "murine dermal fibroblasts",
  "experiment": "RNA-Seq of newborn murine dermal fibroblasts",
  "assay_type": "cell-based, mouse",
  "conditions": "10^−7 M, 24 h",
  "protocol": "All animal studies followed guidelines outlined by the NIH Guide for the Care and Use of Laboratory Animals and protocols were approved by the Institutional Animal Care and Use Committee at the NIEHS or the UAB. […] Skin samples from newborn C57BL/6 mice were collected at the NIEHS. Dermal fibroblasts were isolated from the skin of newborn mice, 1–2 day old. Briefly, we followed the protocols described previously. The skin was washed in PBS, cut into smaller pieces and incubated in 2.4 U/ml of dispase II (Roche) overnight at 4 °C. The dermis was separated from the epidermis and incubated in 0.1% collagenase (Roche) at 4 °C overnight. […] Single cell suspension was prepared by pipetting and draining through a cell strainer. After centrifugation, cell pellets were suspended in DMEM medium containing 10% charcoal-stripped fetal bovine serum (cFBS), mouse fibroblasts growth factor (FGF) and 1% antibiotic, and inoculated into tissue culture dishes (Midwest Scientific, TPP). Cells, in early passages, from different mice were pooled together to provide representative samples for experiments. Fibroblasts were cultured in Petri dishes (10 cm in diameter) in DMEM and 10% cFBS and triplicate semi-confluent cultures were treated as described.\nTriplicate cultures of murine fibroblasts were used for RNA isolation (RNAeasy Micro kit, Qiagen), the RNA samples were combined for each condition and at least 200 ng of RNA for each sample was used to create libraries for RNA sequencing by BGI Americas Corporation Service (Cambridge, MA)[67]. Quality of RNA and its concentration were determined using Agilent 2100.\nThe raw sequence FASTQ files were aligned to Gencode’s GRCm38 p4 Release M11 genome using STAR version 2.5.4b (parameters used: –outReadsUnmapped Fastx; –outSAMtype BAM SortedByCoordinate; –outSAMattributes All; –outFilterIntronMotifs RemoveNoncanonicalUnannotated)[69]. The abundance of transcripts was calculated from the alignments using Cufflinks version 2.2.1 (parameters used: –G; –L; –library-type fr-firststrand). Samples were merged using default parameters with Cuffmerge[70],[71]. The differential expression was calculated using Cuffdiff’s default parameters. The raw data have been deposited at the NCBI GEO (GSE145818).",
  "data": [
    {"compound": "C=C1CCC(O)CC1=CC=C1CCCC2(C)C1CCC2C(C)(O)CC(O)CC(C)C", "note": "(centres unmarked) [20,23(OH)2D3]", "values": [
      {"measurement": "Adh7 expression level", "value": 1.158},
      {"measurement": "Adh7 log2(fold_change) vs control", "value": 2.167},
      {"measurement": "Aqp11 expression level", "value": 0.9828},
      {"measurement": "Aqp11 log2(fold_change) vs control", "value": 2.131},
      {"measurement": "Arid3b expression level", "value": 0.2183},
      {"measurement": "Arid3b log2(fold_change) vs control", "value": -3.968},
      {"measurement": "Bicd1 expression level", "value": 0.8132},
      {"measurement": "Bicd1 log2(fold_change) vs control", "value": -1.4},
      {"measurement": "Btc expression level", "value": 0.8829},
      {"measurement": "Btc log2(fold_change) vs control", "value": 1.8593},
      {"measurement": "Car9 expression level", "value": 2.126},
      {"measurement": "Car9 log2(fold_change) vs control", "value": -2.151},
      {"measurement": "Cbs expression level", "value": 0.2841},
      {"measurement": "Cbs log2(fold_change) vs control", "value": -2.782},
      {"measurement": "Ccl4 expression level", "value": 0.1702},
      {"measurement": "Ccl4 log2(fold_change) vs control", "value": -2.322},
      {"measurement": "Cd68 expression level", "value": 3.478},
      {"measurement": "Cd68 log2(fold_change) vs control", "value": 1.602},
      {"measurement": "Cd200 expression level", "value": 0.493},
      {"measurement": "Cd200 log2(fold_change) vs control", "value": -1.526},
      {"measurement": "Cherp expression level", "value": 31.4407},
      {"measurement": "Cherp log2(fold_change) vs control", "value": -2.561},
      {"measurement": "Clec2g expression level", "value": 0},
      {"measurement": "Clec2g log2(fold_change) vs control", "value": "-inf"},
      {"measurement": "Cnnm4 expression level", "value": 3.148},
      {"measurement": "Cnnm4 log2(fold_change) vs control", "value": -4.001},
      {"measurement": "Cox15 expression level", "value": 16.947},
      {"measurement": "Cox15 log2(fold_change) vs control", "value": 1.531},
      {"measurement": "Cpa2 expression level", "value": 0.3137},
      {"measurement": "Cpa2 log2(fold_change) vs control", "value": -2.329},
      {"measurement": "Ctrl expression level", "value": 0.115},
      {"measurement": "Ctrl log2(fold_change) vs control", "value": -3.153},
      {"measurement": "Dcun1d1 expression level", "value": 4.486},
      {"measurement": "Dcun1d1 log2(fold_change) vs control", "value": -1.564},
      {"measurement": "Defb42 expression level", "value": 0.09112},
      {"measurement": "Defb42 log2(fold_change) vs control", "value": -3.331},
      {"measurement": "Dtx1 expression level", "value": 0.6816},
      {"measurement": "Dtx1 log2(fold_change) vs control", "value": -1.292},
      {"measurement": "Ehf expression level", "value": 0.1594},
      {"measurement": "Ehf log2(fold_change) vs control", "value": -2.391},
      {"measurement": "Ercc2 expression level", "value": 13.0262},
      {"measurement": "Ercc2 log2(fold_change) vs control", "value": -3.709},
      {"measurement": "Erh expression level", "value": 2.145},
      {"measurement": "Erh log2(fold_change) vs control", "value": -1.557},
      {"measurement": "Fmnl1 expression level", "value": 0.08875},
      {"measurement": "Fmnl1 log2(fold_change) vs control", "value": -3.4},
      {"measurement": "Gys2 expression level", "value": 0},
      {"measurement": "Gys2 log2(fold_change) vs control", "value": "-inf"},
      {"measurement": "Hist1h2ab expression level", "value": 1.7305},
      {"measurement": "Hist1h2ab log2(fold_change) vs control", "value": 2.585},
      {"measurement": "Hist1h2bg expression level", "value": 0.5684},
      {"measurement": "Hist1h2bg log2(fold_change) vs control", "value": -2},
      {"measurement": "Hist1h2bh expression level", "value": 0},
      {"measurement": "Hist1h2bh log2(fold_change) vs control", "value": "-inf"},
      {"measurement": "Hist1h4c expression level", "value": 0},
      {"measurement": "Hist1h4c log2(fold_change) vs control", "value": "-inf"},
      {"measurement": "Isl1 expression level", "value": 0.3239},
      {"measurement": "Isl1 log2(fold_change) vs control", "value": -1.316},
      {"measurement": "Krt19 expression level", "value": 10.8799},
      {"measurement": "Krt19 log2(fold_change) vs control", "value": 1.0982},
      {"measurement": "Larp1b expression level", "value": 3.399},
      {"measurement": "Larp1b log2(fold_change) vs control", "value": -2.948},
      {"measurement": "Lhx6 expression level", "value": 2.278},
      {"measurement": "Lhx6 log2(fold_change) vs control", "value": -2.362},
      {"measurement": "Lsm5 expression level", "value": 1.07},
      {"measurement": "Lsm5 log2(fold_change) vs control", "value": -1.322},
      {"measurement": "M1ap expression level", "value": 1.3491},
      {"measurement": "M1ap log2(fold_change) vs control", "value": 1.119},
      {"measurement": "Med9os expression level", "value": 0.7965},
      {"measurement": "Med9os log2(fold_change) vs control", "value": -1.386},
      {"measurement": "Nckipsd expression level", "value": 11.1997},
      {"measurement": "Nckipsd log2(fold_change) vs control", "value": 1.42},
      {"measurement": "Nr3c2 expression level", "value": 0.3025},
      {"measurement": "Nr3c2 log2(fold_change) vs control", "value": -1.869},
      {"measurement": "Nr6a1 expression level", "value": 0.323},
      {"measurement": "Nr6a1 log2(fold_change) vs control", "value": -2.52},
      {"measurement": "Ntrk3 expression level", "value": 0.007819},
      {"measurement": "Ntrk3 log2(fold_change) vs control", "value": -7.899},
      {"measurement": "Parvg expression level", "value": 0.4359},
      {"measurement": "Parvg log2(fold_change) vs control", "value": -1.7705},
      {"measurement": "Pde4dip expression level", "value": 25.3974},
      {"measurement": "Pde4dip log2(fold_change) vs control", "value": -7.279},
      {"measurement": "Psd4 expression level", "value": 0.1525},
      {"measurement": "Psd4 log2(fold_change) vs control", "value": -3.368},
      {"measurement": "Ptpa expression level", "value": 177.146},
      {"measurement": "Ptpa log2(fold_change) vs control", "value": 1.413},
      {"measurement": "Ptpn6 expression level", "value": 0.3394},
      {"measurement": "Ptpn6 log2(fold_change) vs control", "value": -5.148},
      {"measurement": "Rnu3a expression level", "value": 0},
      {"measurement": "Rnu3a log2(fold_change) vs control", "value": "-inf"},
      {"measurement": "Rpph1 expression level", "value": 0.6606},
      {"measurement": "Rpph1 log2(fold_change) vs control", "value": -1},
      {"measurement": "Rsad1 expression level", "value": 1.045},
      {"measurement": "Rsad1 log2(fold_change) vs control", "value": -1.592},
      {"measurement": "Saa1 expression level", "value": 0},
      {"measurement": "Saa1 log2(fold_change) vs control", "value": "-inf"},
      {"measurement": "Samd12 expression level", "value": 1.71},
      {"measurement": "Samd12 log2(fold_change) vs control", "value": -1.081},
      {"measurement": "Scn8a expression level", "value": 0.1177},
      {"measurement": "Scn8a log2(fold_change) vs control", "value": -2.776},
      {"measurement": "Sgca expression level", "value": 0.3824},
      {"measurement": "Sgca log2(fold_change) vs control", "value": -1.697},
      {"measurement": "Slc15a4 expression level", "value": 15.7859},
      {"measurement": "Slc15a4 log2(fold_change) vs control", "value": -1.861},
      {"measurement": "Slc16a5 expression level", "value": 0.2329},
      {"measurement": "Slc16a5 log2(fold_change) vs control", "value": -1.992},
      {"measurement": "Snhg9 expression level", "value": 7.505},
      {"measurement": "Snhg9 log2(fold_change) vs control", "value": -1.322},
      {"measurement": "St7 expression level", "value": 25.5959},
      {"measurement": "St7 log2(fold_change) vs control", "value": -1.436},
      {"measurement": "Stmn1 expression level", "value": 6.591},
      {"measurement": "Stmn1 log2(fold_change) vs control", "value": 2.0805},
      {"measurement": "Susd1 expression level", "value": 1.936},
      {"measurement": "Susd1 log2(fold_change) vs control", "value": 1.474},
      {"measurement": "Syt8 expression level", "value": 0.7109},
      {"measurement": "Syt8 log2(fold_change) vs control", "value": -2.1726},
      {"measurement": "Syt12 expression level", "value": 0.9907},
      {"measurement": "Syt12 log2(fold_change) vs control", "value": -2.055},
      {"measurement": "Tldc2 expression level", "value": 0.1921},
      {"measurement": "Tldc2 log2(fold_change) vs control", "value": -2.216},
      {"measurement": "Tnnc2 expression level", "value": 0.313},
      {"measurement": "Tnnc2 log2(fold_change) vs control", "value": -1.361},
      {"measurement": "Unc5c expression level", "value": 0.1434},
      {"measurement": "Unc5c log2(fold_change) vs control", "value": -2.931},
      {"measurement": "Wdr17 expression level", "value": 1.106},
      {"measurement": "Wdr17 log2(fold_change) vs control", "value": -1.028},
      {"measurement": "Zbtb18 expression level", "value": 4.966},
      {"measurement": "Zbtb18 log2(fold_change) vs control", "value": -3.168},
      {"measurement": "Zfp618 expression level", "value": 1.583},
      {"measurement": "Zfp618 log2(fold_change) vs control", "value": -1.597},
      {"measurement": "number of genes downregulated, FC ≥ 2", "value": 540},
      {"measurement": "number of genes upregulated, FC ≥ 2", "value": 437},
      {"measurement": "number of genes solely downregulated", "setting": "FC ≥ 2", "value": "116 (11%)"},
      {"measurement": "number of genes solely upregulated", "setting": "FC ≥ 2", "value": "193 (12.8%)"}
    ]}
  ]
}
